# Reference: patent US20240261302A1, “METHODS OF TREATING NEURODEGENERATIVE DISEASES OR CONDITIONS” (FloraScience Inc., priority 2023, published 2024)
# How the values were obtained:
# [1] = Trolox Equivalent Antioxidant Capacity (TEAC) Assay; format: biochemical; details: 5 to 10 μM, compared to Trolox at 5 μM
# Protocol: Trolox Equivalent Antioxidant Capacity (TEAC) Assay. Briefly, an aqueous 2,2′-azino-bis(3-ethylbenzothiazoline-6-sulfonic acid) (ABTS) solution (7 mM) was treated with potassium persulfate (K2S2O8) (2.5 mM) overnight at room temperature in the dark and diluted in water to an OD value of 0.7 at 734 nm. 190 μL of the diluted ABTS solution was added to a 96-well plate containing 10 μL of test compounds or Trolox at the desired concentrations. The plate was vigorously mixed and incubated for 4 min at room temperature in the dark. Optical absorbance was measured at 734 nm on a SpectraMax M5 microplate reader. The decrease in absorbance of the ABTS radical cation indicates the presence of antioxidants. Samples were analyzed in eight wells per independent experiment (n=8). The TEAC values of each sample were presented as the percentage of the standard Trolox at 5 μM.
# [2] = test system: HT22 cells; assay: Immunoblotting (Western blots) of protein levels; format: cell-based, mouse
# Protocol: Cell Protein Extraction. HT22 cells were seeded onto 10 cm dishes at a density of 400,000 cells/dish in DMEM supplemented with 10% FBS and 1% antibiotics, and then exposed to the desired treatments. For total protein extracts, HT22 cells were washed with ice-cold phosphate buffered saline (PBS) and lysed with cell extraction buffer containing 10 mM Tris, pH 7.4, 100 mM NaCl, 1 mM EDTA, 1 mM EGTA, 1 mM NaF, 20 mM Na4P2O7, 2 mM Na3VO4, 1% Triton X-100, 10% glycerol, 0.1% sodium dodecyl sulfate (SDS), 0.5% sodium deoxycholate, a protease inhibitor cocktail, and a phosphatase inhibitor cocktail followed by centrifugation (14000 g) for 30 min at 4° C. For nuclear extracts, HT22 cells were washed with ice-cold PBS, incubated with a nuclear fractionation buffer containing 10 mM HEPES, pH 7.9, 10 mM KCl, 0.1 mM EDTA, 0.1 mM EGTA, 1 mM DTT, 1 mM Na3VO4, a protease inhibitor cocktail, and a phosphatase inhibitor cocktail on ice for 15 min, then Nonidet P-40 at a final concentration of 0.6% was added to the buffer. Cells were vortexed, and the nuclei pelleted by centrifugation (1000 g) for 10 min at 4° C. Nuclear proteins were extracted by sonication of the nuclear pellet in nuclear fractionation buffer followed by centrifugation (14000 g) for 30 min at 4° C. The resulting supernatants of total/nuclear protein extracts were stored at −80° C. until analysis. Concentrations of the harvested proteins were determined by the BCA protein assay.
# Immunoblotting. Western blots were carried out as follows. Laemmli sample buffer with 2% β-mercaptoethanol was added to the samples and then boiled for 5 min prior to SDS-PAGE. Equal amounts of cellular protein for each sample (10 μg per lane) were resolved by 4-12% gradient Criterion XT Precast Bis-Tris Gels (Bio-Rad, Hercules, CA) and transferred onto PVDF membranes with a Trans-Blot Turbo System (Bio-Rad, Hercules, CA). The membranes were blocked with 5% skim milk in TBST (20 mM Tris buffer, pH 7.5, 0.5 M NaCl, 0.1% Tween 20) for 1 hr at room temperature and incubated overnight at 4° C. with the diluted primary antibody in 5% BSA in TBST. After washes with TBST, the membranes were incubated with horseradish peroxidase-conjugated goat anti-rabbit or anti-mouse secondary antibodies (Bio-Rad, Hercules, CA) diluted 1:5000 in 5% skim milk in TBST. For all primary antibodies, the same membrane was re-probed for β-actin or an antiserum reacting with the total protein. After additional washing, protein bands were detected using the SuperSignal West Pico PLUS Chemiluminescent Substrate, and visualized with a ChemiDoc MP Imaging System (Bio-Rad, Hercules, CA). Band density was quantified densitometrically with Image Lab software (Bio-Rad, Hercules, CA). Relative protein expression was normalized to ß-actin band density. Each Western blot was performed three to six times with independent protein samples (n=3−6).
smiles,measurement,setting,value
"CCCCCc1cc(O)c2c(c1)OC(C)(C)c1ccc(C)cc1-2 [CBN, 6,6,9-Trimethyl-3-pentyl-benzo[c]chromen-1-ol]",capacity to scavenge total free radicals (TEAC),[1],relatively weak capacity
same,"DRP1 and MFF levels, co-treatment with RSL3",[2],restored DRP1 levels but not MFF levels
same,"MFF and DRP1 expression, compound alone",[2],significantly enhanced the expression of MFF but not DRP1
same,"OPA1 and MFN2 expression, co-treatment with RSL3",[2],enhanced the expression of OPA1 but not MFN2
same,"PGC-1α and TFAM levels, compound alone",[2],no apparent effects
same,"RSL3-induced decrease of SIRT1, pAMPK/AMPK, PGC-1α, NRF1, TFAM",[2],prevented
same,"protein expression of OXPHOS complexes I, II, III and V, compound alone",[2],did not exert obvious effects
same,"protein expression of SIRT1, pAMPK(Thr172)/AMPK and NRF1, compound alone",[2],upregulated
same,RSL3-induced upregulation of OXPHOS complexes,[2]; 50 nM RSL3,inhibited
same,effect on ATF4 with RSL3,"[2]; 5 μM CBN, 50 nM RSL3",not significant
same,"protein levels of Nrf2, HO-1, SOD2 and GPX4 with RSL3","[2]; 5 μM CBN, 50 nM RSL3",at levels similar to the control cells
same,"protein levels of Nrf2, HO-1, SOD2 and GPX4, compound alone","[2]; 5 μM, 16 h",upregulation
same,"MCU expression, compound alone","[2]; 5 μM, 16 hr",reduced basal MCU expression
same,RSL3-induced HSP60 upregulation,[2]; 16 h,suppressed
same,"VDAC level, compound alone",[2]; 16 h,upregulated
same,"OPA1 and MFN2 levels, compound alone",[2]; 16 hr,upregulated
same,RSL3-induced MCU upregulation,[2]; p<0.0001,prevented this increase
same,RSL3-induced VDAC decrease,[2]; p<0.0001,prevented
same,"protein level of OXPHOS complex IV, compound alone",[2]; p<0.0001,reduced
